The source of these data is patent US20130289071A1, “TETRAZOLYL-TETRAHYDROPYRIDINE COMPOUNDS FOR INFLAMMATION AND IMMUNE-RELATED USES” (Synta Pharmaceuticals Corp., priority 2010, published 2013).

The term IC50 denotes the concentration at which inhibition is half-maximal. One may read the inhibition as the share of the control response that was lost under treatment.

One experiment relates to IL-2 production. The experiment in a line: Inhibition of IL-2 production (Jurkat/PHA/1% FBS, ELISA). Conditions: Homo sapiens, Jurkat, 20 h, Jurkat cells, PHA 2.5 μg/mL. Type of experiment: cell-based. As for the experimental part: JurkaT-cells were placed in a 96 well plate (0.5 million cells per well in 1% FBS medium), and then a test compound of this invention was added at different concentrations. After 10 minutes, the cells were activated with PHA (final concentration 2.5 μg/mL) and incubated for 20 hours at 37° C. under 5% CO2. The final volume was 200 μL. Following incubation, the cells were centrifuged, and the supernatants collected and stored at −70° C. prior to assaying for IL-2 production. A commercial ELISA kit (IL-2 Eli-pair, Diaclone Research, Besancon, France) was used to detect production of IL-2, from which dose response curves were obtained. The IC50 value was calculated as the concentration at which 50% of maximum IL-2 production after stimulation was inhibited versus a non-stimulation control.
For orientation: An ELISA detects its analyte on a solid surface through an enzyme-linked reagent.

Experiment [1] deals with T1, CRAC ion channels (ICRAC current), RBL-2H3 cells (Rattus norvegicus, UniProt Q5M848).
T1 construct: endogenous in cells; host or cells: RBL-2H3 (rat basophilic leukemia) cells
Nature of the experiment: Automated patch clamp (Qpatch) inhibition of ICRAC current in RBL-2H3 cells. The class given is cell-based. The note with it: 100 nM compound, % ICRAC inhibition. As to the method:
Automated patch clamp experiments are conducted with the QPatch 16 (Sophion Bioscience, Ballerup, Denmark) at room temperature (21-25° C.). Immediately following the establishment of giga-seal whole-cell configuration, the cells membrane potential is clamped at 0 mV. Voltage ramps of 50 ms duration spanning the voltage range of −100 to +100 mV are then stimulated at a rate of 0.33 Hz. Currents are filtered at 2.9 kHz and digitized at 200 μs intervals. Capacitive currents and series resistance are determined and corrected before each voltage ramp using the automatic capacitance compensation.
RBL-2H3 are grown in DMEM media supplemented with 10% fetal bovine serum, penicillin 100 U/ml and streptomycin […] in an atmosphere of 95% air/5% CO2. Cells are grown to confluence in 175 cm^2 tissue culture flask. On the experimental day, cells harvested with 0.25% trypsin/0.02% EDTA and resuspended in extracellular solution at density of 5×10^6 cells/ml.
The intracellular solution contains Cs-Glutamate 90 mM; NaCl 8 mM; MgCl2 3 mM; CsCl 20 mM; CsBAPTA 20 mM; HEPES 10 mM; InsP3 0.02 mM; pH=7.2 adjusted with CsOH.
The extracellular solution contains NMDGCl 120 mM; KCl 5.4 mM; CsCl 10 mM; CaCl2 10 mM; MgCl2 1 mM; HEPES 10 mM; Glucose 5.5 mM; at pH=7.4 adjusted with HCl.
ICRAC currents are measured using 50 msec voltage ramps between −100 mV to +100 mV. The voltage ramps are stimulated every 3 seconds for at least 570 seconds. The maximum ICRAC current is allowed to develop for at least 135 seconds. Compounds diluted in extracellular solutions are then applied twice, 30 seconds apart. After incubating the cells with compound for 435 seconds, a reference solution is applied at the end of the experiment. The reference solution is a Ca^2+ free extracellular solution.
Off-line analysis with the Qpatch software is used to plot the current value at −80 mV for each ramp trace against time. The resulting current versus time data is then exported into a Microsoft Excel spreadsheet. The ICRAC membrane currents are separated from the cells basal background currents by either subtracting out the average membrane current values during the first 1-3 traces, or the average membrane current values obtained with the reference solution at the end of the experiment. The % ICRAC inhibition in each cell is calculated by comparing the amount of current just prior to the first compound addition to the amount of current after the cells has been perfused with the compound for at least 400 seconds.
(The patch-clamp technique gives a direct electrical read-out from membranes.)

T1 sequence (Q5M848 whole entry): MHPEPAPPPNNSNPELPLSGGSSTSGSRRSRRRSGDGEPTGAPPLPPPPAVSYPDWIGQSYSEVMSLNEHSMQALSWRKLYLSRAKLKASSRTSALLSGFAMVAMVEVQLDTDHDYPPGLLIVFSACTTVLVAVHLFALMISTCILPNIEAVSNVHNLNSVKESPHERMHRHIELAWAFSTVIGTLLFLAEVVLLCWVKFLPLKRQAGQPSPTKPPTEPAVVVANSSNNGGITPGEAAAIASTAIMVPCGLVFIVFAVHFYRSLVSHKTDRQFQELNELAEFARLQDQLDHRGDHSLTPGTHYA

With `CCC1=C(c2ccc(NC(=O)c3cnccc3C)cc2)CN(c2nnn(C)n2)CC1` [Compound 22], the IC50 in the experiment with IL-2 production is 0.029 µM. Also, in experiment [1], the inhibition at 0.1 µM amounted to 43%.
Molecule `CC1=C(c2ccc(NC(=O)c3cnccc3C)cc2)CN(c2nnn(C)n2)CC1` [Compound 47] displayed an IC50 in the experiment on IL-2 production of 0.062 µM. The same molecule gave an inhibition at 0.1 µM in experiment [1] of 70%.
Taken in the same sequence, the figures for `CC1=C(c2ccc(NC(=O)c3ccncc3C)cc2)CN(c2nnn(C)n2)CC1` [Compound 46] were 0.06 µM and 54%.
For `CCn1nnc(N2CCC(C)=C(c3ccc(NC(=O)c4cncc(F)c4C)cc3)C2)n1` [Compound 27], inhibition in the experiment with IL-2 production was half-maximal at 0.037 µM (IC50). In experiment [1], this molecule showed an inhibition at 0.1 µM of 68%.
`Cn1nnc(N2CCC(C3CC3)=C(c3cnc(NC(=O)c4c(F)cccc4F)cn3)C2)n1` [Compound 40] yielded an IC50 in the experiment with IL-2 production of 0.053 µM. Besides, in experiment [1], the inhibition at 0.1 µM is 54%.
In turn, `CC1=C(c2cnc(NC(=O)c3cccc(F)c3F)cn2)CN(c2nnn(C)n2)CC1` [Compound 37] yielded an IC50 in the experiment with IL-2 production of 0.05 µM. The molecule also came in with an inhibition at 0.1 µM in experiment [1] of 61%.
Take `Cn1nnc(N2CCC(C3CC3)=C(c3ccc(NC(=O)c4c(F)cccc4F)cc3)C2)n1` [Compound 9]: half-maximal inhibition in the experiment with IL-2 production (IC50) was put at 0.015 µM. The molecule also had an inhibition at 0.1 µM in experiment [1] of 67%.
In the experiment on IL-2 production, `CC1=C(c2cnc(NC(=O)c3cccc(F)c3C)cn2)CN(c2nnn(C)n2)CC1` [Compound 61] registered an IC50 of 0.116 µM. In experiment [1], this molecule gave an inhibition at 0.1 µM of 64%.
As for `CC1=C(c2ccc(C(=O)Nc3c(F)cccc3F)cc2)CN(c2nnn(C)n2)CC1` [Compound 41], it took 0.054 µM to reach half-maximal inhibition with IL-2 production (IC50). In experiment [1], this molecule showed an inhibition at 0.1 µM of 60%.
Molecule `CCc1c(F)cncc1C(=O)Nc1ccc(C2=C(C)CCN(c3nnn(C)n3)C2)cc1` [Compound 10] had an IC50 in the experiment with IL-2 production of 0.016 µM. The molecule also returned an inhibition at 0.1 µM in experiment [1] of 87%.
The matching figures for `CC1=C(c2ccc(NC(=O)c3cccc(F)c3F)cc2)CN(c2nnn(C)n2)CC1` [Compound 14]: 0.018 µM and 74%.
Molecule `Cn1nnc(N2CCC(C3CC3)=C(c3cnc(NC(=O)c4cccc(F)c4F)cn3)C2)n1` [Compound 39] displayed an IC50 in the experiment with IL-2 production of 0.051 µM. Moreover, the inhibition at 0.1 µM in experiment [1] was found to be 69%.
The matching figures for `CC1=C(c2ccc(NC(=O)c3cccc(F)c3C)cc2)CN(c2nnn(C)n2)CC1` [Compound 38]: 0.051 µM and 48%.
Taken in the same sequence, the figures for `CC1=C(c2cnc(NC(=O)c3ccccc3F)cn2)CN(c2nnn(C)n2)CC1` [Compound 54] were 0.092 µM and 77%.
The matching figures for `CC1=C(c2ccc(NC(=O)c3c(F)cccc3F)cc2)CN(c2nnn(C)n2)CC1` [Compound 11]: 0.017 µM and 53%.
On to `CC1=C(c2ccc(NC(=O)c3ccncc3F)cc2)CN(c2nnn(C)n2)CC1` [Compound 26], for which inhibition in the experiment on IL-2 production was half-maximal at 0.037 µM (IC50). Moreover, the inhibition at 0.1 µM in experiment [1] amounted to 69%.
